Experiments:
αvβ1 integrin [1] = experiment: Inhibition of αvβ1-mediated cell attachment to fibronectin; format: cell-based; conditions: less active, FIG. 6
Source text: Cell lines expressing different integrins were used to examine peptide inhibition of integrin function. A human melanoma cell line, C8161, a fibroblast cell line, WI-38, and an osteosarcoma cell line, MG-63 (described by Seftor et al., Canc. Res., 53:3411–3415 (1993); Vogel et al., J. Biol. Chem., 265:5934–5937 (1990); and Pytela et al. (1985), supra, respectively, each of which is incorporated herein by reference) attach to fibronectin through α5β1 integrin, as does B2/α27, a CHO cell line transfected with human α5. B2/C1, the control parental CHO line (Bauer et al., J. Cell. Biol. 116:477–487 (1992), which is incorporated herein by reference), attaches via […]. CHO cells C11 and NIH 3T3 cells express the endogenous Chinese hamster and mouse α5β1 integrins, respectively. The human melanoma cells, A375-M, attach to fibronectin through both α5β1 and α4β1 integrins (Mould et al., J. Biol. Chem. 265:4020–4024 (1990), which is incorporated herein by reference). CHO cell line B2/v7 express the αvβ1 integrin (Zhang et al., J. Cell. Biol. 122:235–242 (1993), which is incorporated herein by reference). […]
Cell lines expressing fibronectin-binding integrins were used to determine peptide activities against these integrins in the cell attachment assay described by Ruoslahti et al., Meth. […] Bound cells were quantitated by staining with 0.1% amido black. […]

α5β1 integrin = molecular target: T1, α5β1 integrin (Homo sapiens, UniProt P05556+P08648); experiment: Inhibition of 125I-fibronectin binding to α5β1 integrin by competing peptides; conditions: 1 hour, compared with cyclic CRGDC peptide, FIG. 1
T1 construct: The αvβ3, αvβ5 and α5β1 integrins were isolated from human placental extracts; from tissue; host or cells: human placenta
T1 sequence (P08648 42-894 limits assumed): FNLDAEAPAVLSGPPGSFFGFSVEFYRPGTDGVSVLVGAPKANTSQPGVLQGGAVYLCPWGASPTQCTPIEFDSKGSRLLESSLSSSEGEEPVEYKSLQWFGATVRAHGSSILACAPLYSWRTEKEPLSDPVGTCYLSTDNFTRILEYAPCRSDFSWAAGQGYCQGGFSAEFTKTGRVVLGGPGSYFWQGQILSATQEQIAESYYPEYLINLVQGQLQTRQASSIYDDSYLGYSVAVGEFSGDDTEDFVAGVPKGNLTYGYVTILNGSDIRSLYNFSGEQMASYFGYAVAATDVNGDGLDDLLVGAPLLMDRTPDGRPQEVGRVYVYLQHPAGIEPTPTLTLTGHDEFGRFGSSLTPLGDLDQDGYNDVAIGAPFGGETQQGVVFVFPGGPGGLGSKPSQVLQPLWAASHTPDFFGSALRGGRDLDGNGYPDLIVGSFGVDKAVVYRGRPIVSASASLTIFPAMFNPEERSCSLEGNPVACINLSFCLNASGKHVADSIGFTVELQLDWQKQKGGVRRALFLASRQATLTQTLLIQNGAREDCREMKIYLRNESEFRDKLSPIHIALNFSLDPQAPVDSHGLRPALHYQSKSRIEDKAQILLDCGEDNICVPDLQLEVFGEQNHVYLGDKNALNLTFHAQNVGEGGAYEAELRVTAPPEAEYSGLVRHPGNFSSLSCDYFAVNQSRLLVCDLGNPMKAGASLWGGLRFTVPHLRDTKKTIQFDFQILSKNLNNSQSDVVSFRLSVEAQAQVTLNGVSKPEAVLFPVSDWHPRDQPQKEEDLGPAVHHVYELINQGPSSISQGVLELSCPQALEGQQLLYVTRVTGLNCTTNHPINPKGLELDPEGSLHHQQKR
T1 sequence (P08648 895-1049 partner limits assumed): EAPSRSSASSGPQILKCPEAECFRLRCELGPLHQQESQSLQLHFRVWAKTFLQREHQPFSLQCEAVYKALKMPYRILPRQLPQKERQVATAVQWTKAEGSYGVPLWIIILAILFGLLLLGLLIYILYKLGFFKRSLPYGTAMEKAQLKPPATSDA
T1 sequence (P05556 21-798): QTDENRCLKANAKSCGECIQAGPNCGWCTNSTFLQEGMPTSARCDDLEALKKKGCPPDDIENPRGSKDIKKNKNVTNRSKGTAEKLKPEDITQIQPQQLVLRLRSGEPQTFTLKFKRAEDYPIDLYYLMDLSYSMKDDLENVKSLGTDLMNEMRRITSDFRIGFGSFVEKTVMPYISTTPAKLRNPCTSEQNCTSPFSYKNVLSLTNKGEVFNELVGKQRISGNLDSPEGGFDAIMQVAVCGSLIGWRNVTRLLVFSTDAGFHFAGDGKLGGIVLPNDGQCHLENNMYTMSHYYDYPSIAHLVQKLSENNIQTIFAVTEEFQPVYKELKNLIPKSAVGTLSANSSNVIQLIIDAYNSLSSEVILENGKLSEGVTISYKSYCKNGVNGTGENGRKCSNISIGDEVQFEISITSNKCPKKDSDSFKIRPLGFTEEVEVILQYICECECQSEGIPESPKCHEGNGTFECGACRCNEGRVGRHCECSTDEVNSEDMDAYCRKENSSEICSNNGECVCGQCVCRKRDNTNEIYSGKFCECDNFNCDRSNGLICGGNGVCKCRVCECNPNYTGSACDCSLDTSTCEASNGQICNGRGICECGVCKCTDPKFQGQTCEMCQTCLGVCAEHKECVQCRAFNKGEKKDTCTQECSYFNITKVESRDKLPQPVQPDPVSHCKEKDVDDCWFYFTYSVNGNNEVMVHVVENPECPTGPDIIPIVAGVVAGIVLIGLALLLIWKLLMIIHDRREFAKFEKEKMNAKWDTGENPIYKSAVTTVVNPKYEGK
Description: In addition, most of the phage-binding activity in the αvβ3 preparation was captured into microliter wells coated with antibodies against the αv or β3 subunits as described previously (Koivunen et al., J. Biol. Chem., 268:20205–10 (1993). The αIIbβ3 integrin was isolated from outdated platelets (Pytela et al., Science, 231:1559–1562 (1986)).
The α5β1 integrin was bound to α5 specific antibody-coated wells by incubating 300 μl of a placental extract per well in TBS buffer containing 0.1 M octylglucoside, 1 mM CaCl2, 1 mM MnCl2 and proteinase inhibitors overnight at 4° C., (Koivunen et al., J. Biol. Chem., 268: 20205–20210 (1993). Alternatively, the α5β1 integrin was directly coated on plastic as described above.
The wells were extensively washed with TBS containing 0.1% NP-40. ^125I-labeled fibronectin (100,000 cpm per well) was incubated in the presence of competing peptides for 1 hour at 25° C. in 100 μl volume of TBS containing 0.1% NP-40 and 1 mM MnCl2, as described by Koivunen et al., J. Biol. Chem. 268: 20205–20210 (1993). After repeated washing, the bound radioactivity was quantitated with a gamma counter.
Initially, […] [SEQ ID NO:12] was examined for its ability to inhibit binding of fibronectin, which is the natural ligand for α5β1. […] Following incubation, the wells were washed and bound radioactivity was determined with a gamma counter.

αvβ1 integrin [2] = experiment: Attachment of αvβ1-expressing B2/v7 cells to immobilized […] peptide; format: cell-based
Source text: Cell lines expressing fibronectin-binding integrins were used to determine peptide activities against these integrins in the cell attachment assay described by Ruoslahti et al., Meth. Enzymol., 144:803–831 (1982), which is incorporated herein by reference. Human plasma fibronectin was iodinated as described by Morla and Ruoslahti, J. Cell Biol., 118:421–429 (1992), which is incorporated herein by reference. Vitronectin was obtained from Telios Pharmaceuticals (San Diego, Calif.). […] Peptide was coated on plastic by incubating at 37° C. for 2 hours in phosphate buffered saline containing 0.25% glutaraldehyde to crosslink the peptide. Free binding sites on the plastic were blocked using BSA. Approximately 1×10^5 cells per well were allowed to attach for 1 hour in the presence or absence of competing peptides. Bound cells were quantitated by staining with 0.1% amido black.
In addition to the inhibition of cell attachment to natural ligands, attachment and inhibition assays were performed using the […] [SEQ ID NO:6] peptide as substrate. The microliter well were coated with […] [SEQ ID NO:6] using glutaraldehyde as described above. […] Bound cells were quantitated by staining with 0.1% amido black.

With GACRRETAWACGA the “activity against αvβ1 relative to CELRGDGWC” value (αvβ1 integrin [1]) was “about 40 ×”, the “activity against αvβ1 relative to the cyclic RGD peptide” value (αvβ1 integrin [1]) was “greater than 100 ×” and the “inhibition of fibronectin binding to α5β1” value (α5β1 integrin) was “equally as well as the cyclic CRGDC”. For the same sequence, the “peptide coating concentration required to produce significant attachment” value (αvβ1 integrin [2]) was 1 mg/mL.
